Laboratory results from patent publication US8546357B2, “Boron-containing small molecules for controlling ectoparasites” (priority 2011, dated 2013).

Assays:
[1] = system: brown dog tick (Rhipicephalus sanguineus); assay: Residual efficacy against adult brown dog tick infestations on dogs, oral; assay type: in vivo; conditions: Day 32
Experimental: (§1) Immediately following removal of D. variabilis ticks on Day 30, dogs were co-infested with approximately 50 adult, unfed brown dog ticks (R. sanguineus, approximately 50% male and 50% female) and approximately 100 adult, unfed cat fleas (C. felis, approximately 50% male and 50% female). Ticks and fleas were counted and removed on Day 32 (approximately 48 hours after infestation). GM percent efficacy of treatments against both tick species and fleas was calculated using the following formula: […]
(§2) The therapeutic (knockdown) and residual efficacy of 7, administered orally at a point dose of 35 mg/kg bodyweight, was evaluated against adult tick (Dermacentor variabilis and Rhipicephalus sanguineus) and adult cat flea (Ctenocephalides felis) infestations on dogs. Twelve (12) male and female beagle dogs were allocated to either an untreated, negative control group or 7 group (n=6 dogs per group). Dogs were infested with approximately 50 unfed, adult D. variabilis ticks on Days −1, 5, 12, 19, 28, 35 and 42. On Day 0, dogs were orally administered gelatin capsules containing Compound 8194 (50% technical active, 47% microcrystalline cellulose and 3% croscarmellose sodium, w/w) at a point dose of 35 mg/kg. D. variabilis tick counts and classification were conducted on Day 1 (thumb count, approximately 24 hours after treatment) and Days 2, 7, 14, 21, 30, 37 and 44 (approximately 48 hours after treatment). Following removal of D. variabilis ticks on Day 30, all dogs were co-infested with approximately 50 unfed, adult brown dog ticks (R. sanguineus) and approximately 100 unfed, adult cat fleas (C. felis). Brown dog tick and cat flea counts were conducted on Day 32 (approximately 48 hours after infestation). GM percent efficacy of treatments against both tick species and fleas was calculated using the following formula: […]
(§3) The therapeutic (knockdown) and residual efficacy of S-enantiomer, 9, administered orally at a point dose of 25 mg/kg bodyweight, was evaluated against adult tick (Dermacentor variabilis and Rhipicephalus sanguineus) and adult cat flea (Ctenocephalides felis) infestations on dogs. Twelve (12) male and female beagle dogs were allocated to either an untreated, negative control group or 9 group (n=6 dogs per group). Dogs were infested with approximately 50 unfed, adult D. variabilis ticks on Days −1, 5, 12, 19, and 28. On Day 0, dogs were orally administered gelatin capsules containing 9 (50% technical active, 47% microcrystalline cellulose and 3% croscarmellose sodium, w/w) at a point dose of 25 mg/kg. D. variabilis tick counts and classification were conducted on Day 1 (thumb count, approximately 24 hours after treatment) and Days 2, 7, 14, 21 and 30 (approximately 48 hours after treatment). Following removal of D. variabilis ticks on Day 30, all dogs were co-infested with approximately 50 unfed, adult brown dog ticks (R. sanguineus) and approximately 100 unfed, adult cat fleas (C. felis). Brown dog tick and cat flea counts were conducted on Day 32 (approximately 48 hours after infestation). GM percent efficacy of treatments against both tick species and fleas was calculated using the following formula: […]

[2] = system: cat flea (Ctenocephalides felis); assay: Residual efficacy against adult cat flea infestations on dogs, oral; assay type: in vivo; conditions: Day 32
Experimental: as §1, §2, §3

[3] = system: cat flea (Ctenocephalides felis); assay: Therapeutic efficacy and speed of kill against adult cat flea infestations on dogs, oral; assay type: in vivo; conditions: oral capsule 20 mg/kg
Experimental: The therapeutic efficacy and speed of kill of 7, administered orally at a point dose of 20 mg/kg bodyweight, was evaluated against adult cat flea (Ctenocephalides felis) infestations on dogs. Eighteen (18) male and female beagle dogs were allocated to one of six treatment groups (n=3 dogs per group). Groups 1, 2 and 3 were untreated, negative controls and groups 4, 5 and 6 received 7. On Day −1, all dogs were infested with approximately 100 unfed, adult fleas (approximately 50% male and 50% female). On Day 0, dogs in groups 4, 5 and 6 were orally administered gelatin capsules containing 7, at a point dose of 20 mg/kg (50% technical active, 47% microcrystalline cellulose and 3% croscarmellose sodium, w/w). At eight (8) hours post-treatment, fleas were counted and removed from dogs in groups 1 and 4; at twelve (12) hours post-treatment, fleas were counted and removed from dogs in groups 2 and 5; and at twenty-four (24) hours post-treatment, fleas were counted and removed from dogs in groups 3 and 6. GM percent efficacy of treatments against fleas was calculated using the following formula: […]

[4] = Tolerability of oral treatment in dogs; assay type: in vivo, dog
Experimental: The therapeutic (knockdown) and residual efficacy of 5, administered orally at a point dose of 25 mg/kg bodyweight, was evaluated against adult American dog tick (D. variabilis) infestations on dogs. Six beagle dogs were allocated to one of two treatment groups, an untreated control group (n=4 dogs) or 5 group (n=2 dogs). On Day 0, two dogs were treated with 5 via oral gavage (25 mg/ml 5, dissolved in a solution of 55% polyethylene glycol-300, 35% propylene glycol and 10% water) at a point dose of approximately 25 mg/kg. Twenty-four (24) hours before treatment (Day −1), all dogs were infested with approximately 50 unfed, adult-stage American dog ticks (D. variabilis; approximately 50% male and 50% female). On Day 1, approximately 24 hours after treatment, thumb counts were conducted to determine the number and life-status classification of ticks present on all dogs (normal, moribund or dead; attached or detached). Ticks were not removed during thumb counts. On Day 2, approximately 48 hours after treatment, all ticks were classified and removed from dogs. Dogs were re-infested with approximately 50 unfed, adult D. variabilis ticks on Days 5 and 12, with tick classification, counts and removal on Days 7 and 14 (approximately 48 hours after each infestation).
The therapeutic (knockdown) and residual efficacy of 7 and 8, each administered orally at a point dose of 25 mg/kg bodyweight, was evaluated against adult tick (Dermacentor variabilis and Rhipicephalus sanguineus) and adult cat flea (Ctenocephalides felis) infestations on dogs. Twelve (12) male and female beagle dogs were randomly allocated to one of three treatment groups, four (4) dogs per group: Untreated control; 7, 25 mg/kg; and 8, 25 mg/kg. On Day −1, all dogs were infested with approximately 50 unfed, adult D. variabilis ticks. On Day 0, dogs were orally administered gelatin capsules containing either 7 or 8 (50% technical active, 47% microcrystalline cellulose and 3% croscarmellose sodium, w/w). Ticks were counted and classified, but not removed, on all dogs on Day 1, approximately 24 hours after treatment. On Day 2, approximately 48 hours after treatment, ticks were counted, classified and removed. Dogs were re-infested with the same number of D. variabilis ticks on Days 5, 12, 19 and 28 and tick counts were conducted on Days 7, 14, 21 and 30.
The therapeutic (knockdown) and residual efficacy of 7, administered orally at a point dose of 35 mg/kg bodyweight, was evaluated against adult tick (Dermacentor variabilis and Rhipicephalus sanguineus) and adult cat flea (Ctenocephalides felis) infestations on dogs. Twelve (12) male and female beagle dogs were allocated to either an untreated, negative control group or 7 group (n=6 dogs per group). Dogs were infested with approximately 50 unfed, adult D. variabilis ticks on Days −1, 5, 12, 19, 28, 35 and 42. On Day 0, dogs were orally administered gelatin capsules containing Compound 8194 (50% technical active, 47% microcrystalline cellulose and 3% croscarmellose sodium, w/w) at a point dose of 35 mg/kg. […] GM percent efficacy of treatments against both tick species and fleas was calculated using the following formula: […]
The therapeutic efficacy and speed of kill of 7, administered orally at a point dose of 20 mg/kg bodyweight, was evaluated against adult cat flea (Ctenocephalides felis) infestations on dogs. […]

[5] = Example 7, oral capsule 35 mg/kg

Cc1cc(C2=NOC(c3cc(Cl)c(Cl)c(Cl)c3)(C(F)(F)F)C2)ccc1C(=O)NCc1ccc2c(c1)B(O)OC2(C)C (stereo not drawn) [Compound 7, N-((1-Hydroxy-3,3-dimethyl-1,3-dihydrobenzo[c][1,2]oxaborol-6-yl)methyl)-2-methyl-4-(5-(3,4,5-trichlorophenyl)-5-(trifluoromethyl)-4,5-dihydroisoxazol-3-yl)benzamide]
Residual efficacy [1, 5]: 98.7%
Geometric mean group live parasite counts ([1]; Table 2, oral capsule 25 mg/kg): 4.8
Residual efficacy [2, 5]: 100%
Geometric mean group live parasite counts ([2]; Table 2, oral capsule 25 mg/kg): 0.9
% efficacy ([3]; 8 hours post-treatment): (90.4) %
Geometric mean group live flea counts ([3]; 8 hours post-treatment): 7.9
Geometric mean group live flea counts ([3]; 12 hours post-treatment): 0.0
% efficacy ([3]; 24 hours post-treatment): (100) %
Geometric mean group live flea counts ([3]; 24 hours post-treatment): 0.0
knockdown against an existing flea infestation ([3]; eight (8) hours of treatment): rapid knockdown
tolerability ([4]; Example 6, oral capsule 25 mg/kg): well tolerated
tolerability [4, 5]: well tolerated
